Reference: ChEMBL document CHEMBL1201862, “PubChem BioAssay data set” (2004)
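A five-concentration, 48-hour dose response in 96-well plates underlies each endpoint, interpolated linearly between surrounding concentrations. GI50 marks 50% less growth.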 Calls of active or inactive are those of the source. Rule as the data show it: active = GI50 up to about 1.1 µM and inactive = higher.

Experiments:
Assay in all cases: NCI tumour cell line growth inhibition, 48 h
[1] = system: UACC-62
[2] = system: MCF7
[3] = system: OVCAR-5
[4] = system: SK-OV-3
[5] = system: OVCAR-3
[6] = system: SK-MEL-28
[7] = system: HT-29
[8] = system: ACHN
[9] = system: CAKI-1
[10] = system: SF-295
[11] = system: SNB-78
[12] = system: 786-0
[13] = system: UACC-257
[14] = system: NCI-H460
[15] = system: U-251
[16] = system: HOP-18
[17] = system: NCI-H226
[18] = system: NCI-H522
[19] = system: DLD-1
[20] = system: SF-539
[21] = system: M19-MEL
[22] = system: SNB-75
[23] = system: KM-20L2
[24] = system: SK-MEL-5
[25] = system: HCT-116
[26] = system: SK-MEL-2
[27] = system: DMS-273
[28] = system: EKVX
[29] = system: RPMI-8226
[30] = system: KM12
[31] = system: COLO 205
[32] = system: SW-620
[33] = system: CCRF-CEM
[34] = system: A549
[35] = system: OVCAR-8
[36] = system: Malme-3M
[37] = system: LOX IMVI
[38] = system: UO-31
[39] = system: SNB-19
[40] = system: HCT-15
[41] = system: OVCAR-4
[42] = system: A498
[43] = system: RXF 393
[44] = system: DMS-114
[45] = system: SN12C
[46] = system: HOP-62
[47] = system: XF498
[48] = system: SR
[49] = system: NCI/ADR-RES
[50] = system: IGROV-1
[51] = system: K562
[52] = system: HL-60
[53] = system: NCI-H23
[54] = system: MOLT-4
[55] = system: SF-268
[56] = system: HCC 2998
[57] = system: HOP-92
[58] = system: M14
[59] = system: LXFL 529
[60] = system: TK-10

In the case of O=C(CCN1CCCCC1)C(=Cc1ccccc1)C(=O)CCN1CCCCC1, the GI50 [1] is reported as 31.4 µM (inactive), the GI50 [2] is reported as 35.8 µM (inactive) and the GI50 [3] is reported as > 100 µM (inactive). For the same compound, the GI50 [4] was > 100 µM (inactive), the GI50 [5] was 3.74 µM (inactive) and the GI50 [6] was > 10 µM (inactive). The GI50 [7] was 6.68 µM (inactive), the GI50 [8] was 9.73 µM (inactive) and the GI50 [9] was 2.45 µM (inactive). For the same compound, the GI50 [10] was > 100 µM (inactive), the GI50 [11] was > 62.5 µM (inactive) and the GI50 [12] was 7.28 µM (inactive). For the same compound, the GI50 [13] was 6.75 µM (inactive), the GI50 [14] was > 100 µM (inactive) and the GI50 [15] was > 100 µM (inactive). For the same compound, the GI50 [16] was > 10 µM (inactive), the GI50 [17] was > 100 µM (inactive) and the GI50 [18] was 1.23 µM (inactive). The GI50 [19] was 20 µM (inactive), the GI50 [20] was 49.8 µM (inactive) and the GI50 [21] was 67.3 µM (inactive). The GI50 [22] was > 100 µM (inactive), the GI50 [23] was > 100 µM (inactive) and the GI50 [24] was > 100 µM (inactive). The GI50 [25] was 42.3 µM (inactive), the GI50 [26] was > 100 µM (inactive) and the GI50 [27] was > 100 µM (inactive). The GI50 [28] was > 100 µM (inactive), the GI50 [29] was 20.8 µM (inactive) and the GI50 [30] was > 64.7 µM (inactive). The GI50 [31] was 27.7 µM (inactive), the GI50 [32] was 29.7 µM (inactive) and the GI50 [33] was 17.2 µM (inactive). For the same compound, the GI50 [34] was > 100 µM (inactive), the GI50 [35] was 25.1 µM (inactive) and the GI50 [36] was > 10 µM (inactive). For the same compound, the GI50 [37] was 38.7 µM (inactive), the GI50 [38] was > 100 µM (inactive) and the GI50 [39] was > 100 µM (inactive). The GI50 [40] was 64.9 µM, the GI50 [41] was > 100 µM (inactive) and the GI50 [42] was > 100 µM (inactive). The GI50 [43] was 6.52 µM (inactive), the GI50 [44] was 2.77 µM (inactive) and the GI50 [45] was > 74.8 µM (inactive). For the same compound, the GI50 [46] was > 100 µM (inactive), the GI50 [47] was > 100 µM (inactive) and the GI50 [48] was 4.36 µM (inactive). The GI50 [49] was 74.5 µM (inactive), the GI50 [50] was > 100 µM (inactive) and the GI50 [51] was 19.7 µM (inactive). The GI50 [52] was 21.7 µM (inactive), the GI50 [53] was > 59.8 µM (inactive) and the GI50 [54] was 18.6 µM (inactive). The GI50 [55] was > 78.9 µM (inactive), the GI50 [56] was > 100 µM (inactive) and the GI50 [57] was 42.8 µM (inactive). The GI50 [58] was 5.18 µM (inactive).
With CCCCCOc1ccc(/C=N\c2ccc(CCc3ccc(/N=C/c4ccc(OCCCCC)cc4)cc3)cc2)cc1 the GI50 [1] was > 100 µM (inactive), the GI50 [2] was > 100 µM (inactive) and the GI50 [3] was > 100 µM (inactive). The GI50 [4] was > 100 µM (inactive), the GI50 [5] was > 100 µM (inactive) and the GI50 [6] was > 100 µM (inactive). The GI50 [7] was > 100 µM (inactive), the GI50 [10] was > 100 µM (inactive) and the GI50 [11] was > 100 µM (inactive). For the same compound, the GI50 [13] was > 100 µM (inactive), the GI50 [14] was > 100 µM (inactive) and the GI50 [15] was > 100 µM (inactive). The GI50 [16] was > 100 µM (inactive), the GI50 [17] was > 100 µM (inactive) and the GI50 [18] was > 100 µM (inactive). The GI50 [19] was > 100 µM (inactive), the GI50 [20] was > 100 µM (inactive) and the GI50 [21] was > 100 µM (inactive). The GI50 [22] was > 100 µM (inactive), the GI50 [23] was > 100 µM (inactive) and the GI50 [24] was > 100 µM (inactive). For the same compound, the GI50 [25] was > 100 µM (inactive), the GI50 [26] was > 100 µM (inactive) and the GI50 [27] was > 100 µM (inactive). The GI50 [28] was > 100 µM (inactive), the GI50 [29] was > 100 µM (inactive) and the GI50 [30] was > 100 µM (inactive). The GI50 [31] was > 100 µM (inactive), the GI50 [32] was > 100 µM (inactive) and the GI50 [33] was > 100 µM (inactive). The GI50 [34] was > 100 µM (inactive), the GI50 [35] was > 100 µM (inactive) and the GI50 [36] was > 100 µM (inactive). The GI50 [37] was > 100 µM (inactive), the GI50 [38] was > 100 µM (inactive) and the GI50 [39] was > 100 µM (inactive). The GI50 [40] was > 100 µM, the GI50 [41] was > 100 µM (inactive) and the GI50 [42] was > 100 µM (inactive). For the same compound, the GI50 [43] was > 100 µM (inactive), the GI50 [44] was > 100 µM (inactive) and the GI50 [45] was > 100 µM (inactive). For the same compound, the GI50 [46] was > 100 µM (inactive), the GI50 [47] was > 100 µM (inactive) and the GI50 [49] was > 100 µM (inactive). The GI50 [50] was > 100 µM (inactive), the GI50 [51] was > 100 µM (inactive) and the GI50 [52] was > 100 µM (inactive). The GI50 [53] was > 100 µM (inactive), the GI50 [54] was > 100 µM (inactive) and the GI50 [55] was > 100 µM (inactive). The GI50 [56] was > 100 µM (inactive) and the GI50 [57] was > 100 µM (inactive).
With c1cnc2c(c1)-n1cccc1C1(CCOCC1)NN2 the GI50 [59] was > 100 µM (inactive), the GI50 [4] was > 100 µM (inactive) and the GI50 [5] was > 100 µM (inactive). For the same compound, the GI50 [6] was > 100 µM (inactive), the GI50 [7] was > 100 µM (inactive) and the GI50 [8] was > 100 µM (inactive). The GI50 [9] was > 100 µM (inactive), the GI50 [10] was > 100 µM (inactive) and the GI50 [12] was > 100 µM (inactive). The GI50 [14] was > 100 µM (inactive), the GI50 [15] was > 100 µM (inactive) and the GI50 [16] was > 100 µM (inactive). The GI50 [17] was > 100 µM (inactive), the GI50 [18] was > 100 µM (inactive) and the GI50 [19] was > 100 µM (inactive). The GI50 [20] was > 100 µM (inactive), the GI50 [21] was > 100 µM (inactive) and the GI50 [22] was > 100 µM (inactive). For the same compound, the GI50 [23] was > 100 µM (inactive), the GI50 [24] was > 100 µM (inactive) and the GI50 [25] was > 100 µM (inactive). For the same compound, the GI50 [26] was > 100 µM (inactive), the GI50 [27] was > 100 µM (inactive) and the GI50 [28] was > 100 µM (inactive). For the same compound, the GI50 [29] was > 100 µM (inactive), the GI50 [30] was > 100 µM (inactive) and the GI50 [31] was > 100 µM (inactive). The GI50 [32] was > 100 µM (inactive), the GI50 [33] was > 100 µM (inactive) and the GI50 [34] was > 100 µM (inactive). For the same compound, the GI50 [35] was > 100 µM (inactive), the GI50 [36] was > 100 µM (inactive) and the GI50 [38] was > 100 µM (inactive). For the same compound, the GI50 [39] was > 100 µM (inactive), the GI50 [40] was > 100 µM and the GI50 [41] was > 100 µM (inactive). The GI50 [42] was > 100 µM (inactive), the GI50 [43] was > 100 µM (inactive) and the GI50 [44] was > 100 µM (inactive). The GI50 [60] was > 100 µM (inactive), the GI50 [45] was > 100 µM (inactive) and the GI50 [47] was > 100 µM (inactive). The GI50 [48] was > 100 µM (inactive), the GI50 [50] was > 100 µM (inactive) and the GI50 [51] was > 100 µM (inactive). The GI50 [52] was > 100 µM (inactive), the GI50 [53] was > 100 µM (inactive) and the GI50 [54] was > 100 µM (inactive). The GI50 [55] was > 100 µM (inactive), the GI50 [56] was > 100 µM (inactive) and the GI50 [57] was > 100 µM (inactive). For the same compound, the GI50 [58] was > 100 µM (inactive).
